Measured values published in patent publication US20250205181A1 (CZAP RESEARCH AND DEVELOPMENT, LLC, priority 2021, published 2025).

How the values were obtained:
[1] = Self-reported erectogenic effect / blood flow when tumescent in subject (Examples 1 and 2); type: in vivo, human; conditions: in conjunction with the 25 mg dosing of the anandamide CD formulation
Method: The subject had been taking various amounts of sildenafil for many years at 10-25 mg increments.
The subject of Example 1 determined that the combined use of these formulations permitted controlled dosing with bolus and/extended release regimens.

CB2 receptor = CB2 receptor (Mus musculus, UniProt P47936); conditions: literature value, Lin et al., J Med Chem 1998; cited from earlier work
Chain of CB2 receptor (P47936 whole entry): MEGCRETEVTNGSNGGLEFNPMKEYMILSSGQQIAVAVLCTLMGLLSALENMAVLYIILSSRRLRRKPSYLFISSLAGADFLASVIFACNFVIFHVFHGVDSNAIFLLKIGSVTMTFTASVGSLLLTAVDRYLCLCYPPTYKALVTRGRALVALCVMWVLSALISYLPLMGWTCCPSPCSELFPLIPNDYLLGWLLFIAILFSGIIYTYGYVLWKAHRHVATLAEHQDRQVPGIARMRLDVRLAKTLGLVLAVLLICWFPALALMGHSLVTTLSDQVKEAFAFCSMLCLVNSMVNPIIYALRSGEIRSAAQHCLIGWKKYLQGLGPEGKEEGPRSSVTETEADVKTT

Row | SMILES | effect of 10 mg sildenafil in conjunction with anandamide CD versus 25 mg sildenafil before anandamide CD supplementation [1] | Ki (CB2 receptor)
1 | CCCc1nn(C)c2c(=O)[nH]c(-c3cc(S(=O)(=O)N4CCN(C)CC4)ccc3OCC)nc12 [sildenafil] | more noticeable results | 
2 | CCCCC/C=C\C/C=C\C/C=C\C/C=C\CCCC(=O)NCCO [anandamide, (5Z,8Z,11Z,14Z)-N-(2-hydroxyethyl)icosa-5,8,11,14-tetraenamide] |  | > 1000 nM
